Literature values as cited in patent US20250375533A1, “Sublingual Formulation of Anticancer Compound for Use in the Treatment of Autoimmune Neurodegenerative Diseases” (Vektor Pharma TF GmbH, priority 2022, published 2025).
Like-named read-outs stand apart in the source and are kept apart here.

What was measured:
[1] = in vivo
[2] = molecular target: BCRP (ABCG2) transporter proteins (Homo sapiens, UniProt Q9UNQ0)
[3] = oral solution without HPβCD
[4] = 37° C.
[5] = administered rectally
Escherichia coli = Escherichia coli culture
[6] = saliva
Clostridium perfringens = Clostridium perfringens culture
[7] = pH 1.4 solution; for active substance maintained: with cyclodextrins

BCRP (ABCG2) transporter proteins, sequence (Q9UNQ0 whole entry): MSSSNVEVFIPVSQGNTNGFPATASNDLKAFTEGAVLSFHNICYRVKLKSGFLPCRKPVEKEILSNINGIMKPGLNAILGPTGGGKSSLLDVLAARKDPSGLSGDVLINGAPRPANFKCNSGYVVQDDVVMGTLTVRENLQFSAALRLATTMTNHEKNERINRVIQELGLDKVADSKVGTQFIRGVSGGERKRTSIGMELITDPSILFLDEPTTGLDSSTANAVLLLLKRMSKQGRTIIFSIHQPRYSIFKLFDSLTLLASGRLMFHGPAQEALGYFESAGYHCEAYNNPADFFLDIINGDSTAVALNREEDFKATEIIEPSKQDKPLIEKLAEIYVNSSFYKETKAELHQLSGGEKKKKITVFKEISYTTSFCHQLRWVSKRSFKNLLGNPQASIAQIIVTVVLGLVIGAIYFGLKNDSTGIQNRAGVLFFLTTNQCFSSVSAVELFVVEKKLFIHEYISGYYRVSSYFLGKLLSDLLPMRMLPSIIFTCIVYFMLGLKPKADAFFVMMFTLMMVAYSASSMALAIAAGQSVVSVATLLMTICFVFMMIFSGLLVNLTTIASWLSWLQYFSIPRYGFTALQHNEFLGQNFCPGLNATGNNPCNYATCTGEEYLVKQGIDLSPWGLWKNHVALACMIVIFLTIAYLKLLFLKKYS

SMILES | interpatient variability, CV %, AUC inf [1] [%] | interpatient variability, CV %, AUC t [1] [%] | interpatient variability, CV %, Cmax [1] [%] | substrate of BCRP (ABCG2) transporter proteins [2] | bioavailability after oral administration [3] [%] | tin value of cladribine ([4]; pH 1.0 solutions) [h] | tin value of cladribine ([4]; pH 2.0 solutions) [h] | degradation (deglycosylation to Cloroadenine) (whole feces) | bioavailability [5] [%] | degradation (deglycosylation to Cloroadenine) (Escherichia coli) | degradation (Bacteroides fragilis) | solubility in water | degradation [6] | degradation (deglycosylation to Cloroadenine) (Clostridium perfringens) | active substance remained in solution ([7]; absence of cyclodextrins, after 8 hours) [%] | active substance lost ([7]; absence of cyclodextrins, after about 3 hours) | active substance maintained ([7]; 8 hours) | active substance maintained ([7]; almost 5 hours) | degradation (Enterococcus faecalis)
Nc1nc(Cl)nc2c1ncn2[C@H]1C[C@H](O)[C@@H](CO)O1 [Mavenclad] | 29.2 | 29.8 | 43.0 | – | – | – | – | – | – | – | – | – | – | – | – | – | – | – | –
Nc1nc(Cl)nc2c1ncn2[C@H]1C[C@H](O)[C@@H](CO)O1 [cladribine, 2-chloro-2′-deoxyadenosine] | – | – | – | substrate of BCRP | 35.3 | 0.37 | 1.6 | rapidly deglycosylated | 21 | rapidly deglycosylated | slowly or not at all | slightly soluble | slowly or not at all | rapidly deglycosylated | 15 | about 50% | approximately 70% | more than 80% | slowly or not at all
